Assay results from patent US20040081682A1, “Transdermal system (tds) that contain inhibitors of phosphodiesterase lV” (priority 2000, published 2004).

Assay: Pharmacokinetic study of humans (transdermal TDS E vs. intravenous infusion, serum RIA)
Conditions: human, in vivo
Protocol: Pharmacokinetic Study of Humans
The above-described formulation E was tested on twelve healthy males at the age of 20 to 42 years with normal body weight, whereby for 72 hours in each case, three transdermal formulations of 10 cm^2 each with 5 mg of (R)-(−)-5-(4-methoxyphenyl-3-propoxy)-5-methyl-2-oxazolidinone were simultaneously applied on the lower back area. After 72 hours, the transdermal formulation was removed and within one week of washing-out time, the concentration of the active ingredient in the serum was determined per RIA. The measured serum levels of the active ingredient produced an average transdermal substance flow of 0.49±0.7 μg/cm^2/h, at maximum serum levels of 0.88 ng/ml in the time interval of 29±10 hours.
Based on the pronounced plateau phase, which was achieved after the administration of the TDS, at the time of the reduction of TDS after three days, it was still possible to measure mesopram concentrations in the range of 65±18% of the maximum levels. […] The AUC values as well as other pharmacokinetic parameters are found in Table 3. In a comparison test with intravenous administration of a total of 0.2 mg of (R)-(−)-5-(4-methoxyphenyl-3-propoxy)-5-methyl-2-oxazolidinone within one hour, a multiple of higher serum levels was measured that was […]. One hour after the infusion was completed, the mean serum levels dropped to 1.15±0.44 ng·ml·l. Later on, the serum levels dropped off four hours after completion of the infusion to achieve a level of 0.39±0.17 ng·ml·l, after 8 hours 0.17±0.09 ng·ml·l, and after 24 hours 0.08±0.08 ng·ml·l. The essential pharmacokinetic parameters after i.v. administration of mesopram are depicted in Tab. 3. The comparison test with infusion was performed on the same test subjects as the transdermal administration. […]

Cl (clearance): 5.1 ± 1.8 | f (absolute bioavailability): 100% | ιη (half-life): 2.5 ± 0.9 h
Substance: (R)-(−)-5-(4-methoxyphenyl-3-propoxy)-5-methyl-2-oxazolidinone [mesopram]
